Data taken from publication PMC5754413, “Mass balance, metabolic disposition, and pharmacokinetics of a single oral dose of regorafenib in healthy human subjects” (Cancer Chemotherapy and Pharmacology, 2017).
Read-outs that look alike come from different tables or passages of the source.

What was measured:
[1] = Pharmacokinetics of regorafenib in plasma (HPLC–MS/MS) after a single oral 120 mg dose in healthy male subjects; format: in vivo, human; conditions: for half-life: plasma
Protocol: Subjects were screened within the 28 days before scheduled drug administration and entered the clinical unit 1 day before drug administration. After an overnight fasting, subjects received a single oral 120 mg dose of regorafenib, containing approximately 100 μCi (3.7 MBq) [^14C]regorafenib, as a 6 mL solution in an aqueous PEG-based vehicle (Diluent Sol 30 mL oral, Bayer HealthCare AG) followed by 240 mL water. The associated radiation exposure fell within International Commission on Radiological Protection Guidelines for Category IIa studies (0.1–1 mSv).
Blood and plasma: Blood samples (18.7 mL per each time point) were collected into nonbeaded lithium-heparinized tubes immediately pre-dose and at the following post-dose times: 0.5, 1, 1.5, 2, 2.5, 3, 4, 6, 9, 12, 16, 20, 24, 36, 48, 72, 96, 120, 144, 192, 240, and 288 h. For each sample, 1 mL of whole blood was stored at 4 °C for subsequent LSC and the remainder was processed for plasma. Individual 150 μL plasma samples for each time point were treated with formic acid (20 μL) and acetonitrile (450 μL). The samples were homogenized using a MS2 Minishaker® (IKA® Labortechnik, Staufen im Breisgau, Germany). The precipitated proteins were removed by centrifugation (5 min, 13,000 rpm, Biofuge). After concentrating the supernatant to about 80 μL, methanol (15 μL) was added. The individual samples were analyzed by HPLC with off-line radioactivity detection for metabolite profiling.
Quantitative analysis of regorafenib in plasma was performed after protein precipitation using a fully validated HPLC–MS/MS assay. The analyses were performed in accordance with the 2001 FDA guidelines on bioanalytical validation. [^2H3,^15N]-regorafenib was used as internal standard (final concentration: 12.5 µg/L). The calibration range was from 2.00 µg/L to 2.00 mg/L. Quality control samples in the concentration range 5.00 µg/L to […] were determined with an accuracy of 98.1–103% and a precision of 1.55–10.0% (n = 6–8/concentration). All samples were stored at or below − 15 °C and analyzed within 14 days after sample receipt.
Pharmacokinetic outcome measures were generated by non-compartmental analysis of plasma concentration–time data using WinNonlin v4.1 (Pharsight Corporation) in conjunction with Kincalc v2.50 (Bayer AG). For individual subjects, primary outcome measures were maximum observed concentration (C max) and area under the concentration–time curve from time zero to infinity (AUC). […] The metabolite or regorafenib percentages were calculated by AUC(0–144)metabolite or regorafenib divided by AUC(0–144)radioactivity calculated from data obtained by HPLC–LSC analysis. Secondary outcomes were: time to C max (t max); apparent terminal elimination half-life (t ½); apparent volume of distribution during the terminal phase after extravascular administration (Vz/F); and total body clearance of drug calculated after extravascular administration (e.g., apparent oral clearance) (CL/F). AUC was estimated by the sum of partial areas: partial areas were calculated using the linear (if C i ≤ C i+1) or the logarithmic (if C i > C i+1) trapezoidal rules. The quality of the half-life calculation was assessed based on graphs showing the concentration–time profile. For reliable calculation of the half-life, at least three data points (concentration/time values) were used. The extrapolated portion of the AUC from the last measured data point C(t n) to infinity was calculated using the concentration C last,calc, which was calculated from the log-linear regression line used for half-life calculation rather than C(t n). In addition, appropriate pharmacokinetic parameters were derived from the total radioactivity-versus-time data in blood and plasma.

[2] = Mass balance: urinary and fecal excretion of radioactivity and metabolite pattern in excreta; format: in vivo, human
Protocol: Urine: Urine samples were collected at 12-h intervals post-dose on Day 1 and then at 24-h intervals until 288 h post-dose. Urine was stored at 4 °C until it was divided into aliquots for LSC and subsequent metabolite profiling (aliquots were stored at − 20 °C).
Feces: Fecal samples were collected and homogenized in water on a daily basis until 12 days post-dose. Duplicate aliquots of the homogenates were taken for combustion with oxygen (in preparation for LSC), and separate aliquots were used for metabolite profiling.
Liquid samples: Duplicate aliquots of liquid samples were diluted with 1 mL distilled water, if necessary, and mixed with 10 mL Aquasafe 500 Plus scintillation fluid. Levels of radioactivity were measured by LSC (PerkinElmer 2100) with automatic quench correction by an external standard channel ratio method at 13 °C using Ultima Gold™ as the liquid scintillation cocktail. Lower limits of detection (LLOD) were 30 μg-Eq/L for plasma (sample volume 0.5 mL), 50 μg-Eq/L for whole blood (sample volume 0.3 mL), and 0.016 μg-Eq/g for urine (sample weight 1 g).
Fecal samples: Duplicate aliquots of fecal homogenate (about 0.3 g) were weighed into Combustocones® containing Combustopads® for combustion analysis. Samples were combusted using a Packard Tri-Carb 307 Automatic Sample Oxidizer. The resultant ^14CO2 generated was collected by absorption in Carbo-Sorb (8 mL) to which Permafluor E+ (10 mL) was added. Radioactivity was quantified using a liquid scintillation analyzer (PerkinElmer 2100), with automatic quench correction using an external standard method as urine sample analysis. Samples were allowed to stabilize with respect to heat and light, and each sample was analyzed for 5 min. Prior to calculation of individual results, a background count rate was determined and subtracted from each sample’s count rate. LOD was 0.05 μg-Eq/g (sample weight 0.3 g).
Due to the limited amount of radiocarbon associated with many of the samples, analyses were conducted using HPLC with fraction collection followed by off-line LSC. Samples were analyzed on a 150 × 3 mm Prodigy® ODS-3 100A, 3 µm column (Phenomenex, Aschaffenburg, Germany) protected by 8 × 3 mm Nucleosil® 100-3 C18 HD guard columns (Macherey–Nagel, Düren, Germany). Metabolites were separated with a gradient of aqueous potassium dihydrogen phosphate (1 g/L, pH 2.0, mobile phase A) versus acetonitrile (mobile phase B) at a flow rate of 0.5 mL/min (gradient: 0% B at 0 min, linear to 50% B at 10 min, linear to 60% B at 25 min, linear to 80% B at 26 min, plateau at 80% B to 30 min). The radiochemical profile of [^14C]regorafenib-derived radioactivity was determined for all urine samples, plasma extracts, and fecal homogenate extracts. Here, HPLC fractionation into 96-well plates was followed by off-line LSC (Wallac 1450 MicroBeta liquid scintillation analyzer) after adding 150 μL of scintillation cocktail to each well (Ultima-Flo™ AP, PerkinElmer; sampling rate: 10 s/well) using the Wallac 1450 Microbeta™ Plusliquid detector. Reconstructed radiochemical profiles were compiled from the resulting data.

CYP3A4 = test system: CYP3A4; design: method as in PMID 24896071, PMID 27734608; conditions: in vitro data; cited from earlier work
[3] = male, human, regorafenib in plasma, LC–MS/MS, single oral 120 mg solution, N = 4, geometric mean (%CV)
[4] = range between subjects, percent of administered dose

half-life ([1]; human, oral, 120 mg, except for subject 003, read-out: Half-lives for regorafenib, range between subjects): 39 to 48 h | half-life ([1]; human, oral, 120 mg, subject 003, read-out: Calculated t 1/2 for regorafenib (converted)): ~62 h | Vd/F ([1]; male, human, oral, 120 mg, regorafenib in plasma, geometric mean (%CV), N = 4, read-out: Vz/F): 216 L | Tmax ([1]; male, human, oral, 120 mg, regorafenib in plasma, median (range), N = 4): 1.25 h | half-life ([1]; male, human, oral, 120 mg, regorafenib in plasma, geometric mean (%CV), N = 4, read-out: t 1/2 (converted)): 48.6 h | AUC [1, 3]: 39000 ng·h/mL | Cmax [1, 3]: 1580 ng/mL | CL/F ([1]; regorafenib in plasma, geometric mean (%CV), N = 4): 3.08 (34.9) L/h | Dose renally excreted after 96 h ([2]; in vivo): less than 3% | Cumulative renal excretion by 96 h ([2]; mean, percent of dose): 16.6% | Excretion in feces within 8 days ([2]; mean, total radioactivity): 67.7% | Excretion in feces within the first 4 days ([2]; mean, total radioactivity): 46.3% | Radioactivity eliminated in feces, range [2, 4]: 68.3–76.3% | Radioactivity excreted via urine, range [2, 4]: 16.2–24.7%
Structure (SMILES): CNC(=O)c1cc(Oc2ccc(NC(=O)Nc3ccc(Cl)c(C(F)(F)F)c3)c(F)c2)ccn1 [Regorafenib, 4-[4-({[4-chloro-3-(trifluoromethyl)phenyl]carbamoyl}amino)-3-fluorophenoxy]-N-methylpyridine-2-carboxamide]
Enzyme catalyzing oxidative biotransformation (CYP3A4): predominantly catalyzed by CYP3A4
